Measured values taken from ChEMBL document CHEMBL1833798, “Coprismycins A and B, neuroprotective phenylpyridines from the dung beetle-associated bacterium, Streptomyces sp” (Bioorg Med Chem Lett, 2011).

Experiments:
[1] = test system: MCF7; test: Cytotoxicity against human MCF7 cells assessed as inhibition of cell proliferation; assay type: ADME, cell-based
[2] = test system: SH-SY5Y; test: Neuroprotective activity against MPP-induced neurotoxicity in human SH-SY5Y cells assessed as increase in cell viability pretreated for 2 hrs before MPP challenge measured after 48 hrs; assay type: functional, cell-based
[3] = test system: SH-SY5Y; test: Cytotoxicity against human SH-SY5Y cells assessed as cell viability at 1 to 5 uM after 24 hrs; assay type: cell-based
[4] = test system: HepG2; test: Cytotoxicity against human HepG2 cells assessed as inhibition of cell proliferation; assay type: ADME, cell-based
[5] = test system: HCT-116; test: Cytotoxicity against human HCT116 cells assessed as inhibition of cell proliferation; assay type: ADME, cell-based
[6] = test system: AGS; test: Cytotoxicity against human AGS cells assessed as inhibition of cell proliferation; assay type: ADME, cell-based
[7] = in vitro; conditions: human, HCT116 cells
Description: Cytotoxicity against human HCT116 cells assessed as inhibition of cell proliferation at 50 uM

[8] = test system: SH-SY5Y; test: Neuroprotective activity against MPP-induced neurotoxicity in human SH-SY5Y cells assessed as increase in cell viability at 5 uM pretreated for 2 hrs before MPP challenge measured after 48 hrs relative to control; assay type: functional
[9] = test system: A549; test: Cytotoxicity against human A549 cells assessed as inhibition of cell proliferation; assay type: ADME, cell-based
[10] = test system: SH-SY5Y; test: Neuroprotective activity against MPP-induced neurotoxicity in human SH-SY5Y cells assessed as increase in cell viability at 2.5 uM pretreated for 2 hrs before MPP challenge measured after 48 hrs relative to control; assay type: functional
[11] = test system: SH-SY5Y; test: Neuroprotective activity against MPP-induced neurotoxicity in human SH-SY5Y cells assessed as decrease in cell viability at 5 uM pretreated for 2 hrs before MPP challenge measured after 48 hrs relative to control; assay type: functional
[12] = test system: SH-SY5Y; test: Cytotoxicity against human SH-SY5Y cells assessed as cell viability at 5 uM after 48 hrs; assay type: cell-based

inhibition at 50 µM [7] [%]	SMILES	IC50 [1]	Activity [2]	Activity [3]	IC50 [4]	IC50 [5]	IC50 [6]	Activity [8] [%]	IC50 [9]	Activity [10] [%]	Activity [11] [%]	Activity [12]
7.37	COc1cc(-c2ccccn2)nc(C#N)c1SC	Not Active	Dose-dependent effect	Non-toxic	Not Active	Not Active	Not Active	83.3	Not Active			
	COc1cc(-c2ccccc2)nc(/C=N/O)c1SC [COPRISMYCIN A]	Not Active	Dose-dependent effect	Non-toxic	Not Active	Not Active	Not Active	80.3	Not Active			
	COc1cc(-c2ccccn2)nc2cnsc12	Not Active	Dose-dependent effect	Non-toxic	Not Active	Not Active	Not Active	80	Not Active			
	COc1cc(-c2ccccc2)nc(/C=N\O)c1SC [COPRISMYCIN B]	Not Active	Dose-dependent effect	Non-toxic	Not Active	Not Active	Not Active		Not Active	88.4	69.8	Toxic
